Where “and” joins values, the source holds several entries; their conditions need not be identical. Identical values can stand only once. Like-named read-outs stand apart in the source and are kept apart here.
Key:
Type in all cases: cell-based
[1] = system: A431 cells; assay: Unlabeled versus IRDye 700DX-labeled panitumumab with and without irradiation (Example 5); settings: 10 minutes incubation
Method: Although the assumption is that the doses used in the assay described herein are too low to be a contributing factor in the cell death seen with IRDye® 700DX-labeled panitumumab, a small study was conducted to confirm that no therapeutic effect is due to the assay system. The test included the following four treatments: treatment 1 of unlabeled panitumumab and no irradiation (FIG. 11A), treatment 2 of IRDye® 700DX-labeled panitumumab and no irradiation (FIG. 11B), treatment 3 of unlabeled panitumumab and irradiation (FIG. 11C), and treatment 4 of IRDye® 700DX-labeled panitumumab and irradiation (FIG. 11D). The irradiation dose was 24 J/cm^2 with the probe incubation of 10 minutes and a concentration of 0.1 μM.

[2] = system: A431 cells; assay: Cytotoxicity and localization of antibody probe versus small protein ligand probe after irradiation (Example 4)
Method: Both probes can bind EGFR and had approximately 2 dye molecule per conjugate molecule. It was assumed that the affinity for the receptor will be different for the antibody (generally pM), compared to the small protein (nM). Although the probe doses were different, the incubation times were the same at only 10 min. After incubation, the probes were rinsed from the cells. FIGS. 7A and 7B illustrates A431 cells that were incubated with IRDye 700DX-panitumumab or IRDye 700DX-EGF, respectively and thereafter irradiated.
Thus, upon irradiation, the production of singlet oxygen occurred at the cell surface. Typically, the EGF ligand is internalized after binding the EGF receptor.

[3] = system: A431 cells; settings: 32 J/cm^2
Method: A different LED source was tested and evaluated to determine if a second source of LED would yield a similar effect as the standard LED used. A straight forward evaluation was set up with four treatments (treatments A-D). The tests were performed in triplicate in order to examine reproducibility. The test included the following four treatments: treatment A of no probe and irradiation, treatment B of IRdye® 700DX-labeled EGF and no irradiation, treatment C of IRDye® 700DX-labeled EGF and irradiation, and treatment D of IRDye® 700DX-labeled panitumumab and irradiation. The probe dose was about 0.1 μM labeled panitumumab and 0.5 μM 700DX-labeled EGF. Irradiation was for 10 minutes at an irradiation dose of 32 J/cm^2.
Significant and similar effects for both probes together and in triplicate thus providing clear evidence that IRDye® 700DX-labeled small protein can kill cells similarly to an IRDye 700DX-labeled antibody. Conditions for use of either probe may be unique to the individual probe. […] The fluorescent scale of the 700 nm images was the same for both treated sets of cells (FIGS. 12C-12D). Although the exact concentration of the antibody probe is not known, the signals from the different probes appear similar in level and intensity.

[4] = system: A431 cells; assay: VB-48 assay: vitality, viability and necrosis of treatments 1-10 (Table 3)
Method: Briefly, A431 cells were labeled with respective probes for specific treatments (listed below); cells were rinsed and evaluated for labeling. The test include the following treatments: […], treatments 3-4 of EGF-IRDye® 700DX at 0.5 μM and radiation, treatments 5-6 of IRDye® 700DX NHSe at 5 μM and radiation, treatments 7-8 of panitumumab-IRDye® 700DX at about 0.1 μM and radiation, treatment 9 of a negative control with no probe and no irradiation, and treatment 10 of RGD-IRDye® 700DX and no irradiation. The probes were incubated for about 10 minutes and with a longer period of about 20 minutes for the RGD probe. The cells were monitored with microscopy and morphology was examination 24 hours post treatment.
Low binding was expected for the RGD probe due to the low level of integrin receptors on A431 cells. […] By 3 hours post-irradiation all treatments except RGD (Treatment 1) show significant cytotoxicity. Vitality, viability and necrosis assays such as a VB-48 assay and JC-1 assay were performed.

[5] = system: HTB-186 cells; assay: Caspase 3/7 assay (Example 10, Table 8); settings: 32 J/cm^2, probe about 5 hours, 20 hours post irradiation; 700DX-RGD and 700DX-EGF 500 nM
Method: (§1) This example illustrates the ability of IRDye® 700DX small molecule conjugates to induce apoptosis in cells, e.g., cancer cells. In this study HTB-186 cells (a desmoplastic cerebellar medulloblastoma cell line) were treated with IRDye® 700DX small molecule conjugates (IRDye® 700DX labeled chlorotoxin, anti-EGFR Affibody®, RGD peptide and EGF ligand). Apoptosis was measured by evaluating caspase 3/7 activity and mitochondrial membrane potential. […]
The caspase 3/7 assay was used to measure caspase 3/7 activity in the cells from the treatments listed above. […] Upon activation, the caspases cleave the substrate, and in turn, a fluorescence signal is emitted. […] The fluorescence can be detected by, for example, flow cytometry, fluorescence microscopy, and fluorescence-based image cytometry.
(§2) To determine whether the treated cells are undergoing apoptosis, a caspase 3/7 assay and mitochondrial potential assay were performed. […] Table 8 below provides cells number, % viability, JC-1% shift, and % late apoptotic and dead cells as determined by caspase 3/7 assay.

[6] = system: HTB-186 cells; assay: Viability, cell number and microscopy morphology at 20 h post irradiation (Example 10)
Method: This example illustrates the ability of IRDye® 700DX small molecule conjugates to induce apoptosis in cells, e.g., cancer cells. In this study HTB-186 cells (a desmoplastic cerebellar medulloblastoma cell line) were treated with IRDye® 700DX small molecule conjugates (IRDye® 700DX labeled chlorotoxin, anti-EGFR Affibody®, RGD peptide and EGF ligand). Apoptosis was measured by evaluating caspase 3/7 activity and mitochondrial membrane potential. Apoptosis can be characterized by a variety of cell morphological and biochemical changes including membrane blebbing, cell shrinkage, alteration of membrane asymmetry and permeability, and/or condensation of chromatin and nucleus (Coleman et al., Nat Cell Biol, 2001, 3(4):339-45, Bortner and Cidlowski, Biochem Pharmacol, 1998, 56(12):1549-59; van Engeland et al., Experimental Cell Research, 1997, 235:421-430).
Microscopy images of cells in petri-dishes were captured at 20 h post irradiation. The images were captured in DIC and 700 nm to visualize the probe, and composite images were generated (DIC+700 nm) to visualize the overlay.
as §2

[7] = system: HTB-186 cells; assay: JC-1 mitochondrial membrane potential assay (Example 10, Table 8); settings: 32 J/cm^2, probe about 5 hours, 20 hours post irradiation; 700DX-RGD and 700DX-EGF 500 nM
Method: as §1
In this study a mitochondrial membrane potential assay was performed on cells from treatments 1-8 to determine whether the treated cells underwent apoptosis. […] As JC-1 dye accumulated in mitochondria, its fluorescence emission shifts from green (about 529 nm) to red (about 590 nm). The presence of red fluorescence due to JC-1 aggregate formation corresponds to regions of high mitochondrial polarization. Depolarized mitochondria are indicated by green fluorescence of the JC-1 monomers. A detectable decrease in the red/green fluorescence intensity ratio indicates mitochondrial depolarization, and thus, apoptosis. In a membrane potential assay, cells are incubated with the JC-1 dye and fluorescence is detected by, for example, flow cytometry, fluorescence microscopy, and fluorescence-based image cytometry. […]

[8] = irradiated (I) 10 minutes, 700DX-EGF 0.5 μM, 700DX-Pan about 0.1 μM
[9] = irradiated (I) 32 J/cm^2, RGD 0.5 μM, EGF 0.5 μM, NHSe 5 μM, Pan ~0.1 μM
[10] = no irradiation (NI), RGD-700DX 0.5 μM

700DX-Pan [reference compound]
induction of cell death (morphology) ([1]; irradiation 24 J/cm^2, 0.1 μM, 24 hours post-treatment): effectively induced cell death | induction of cell death (morphology) ([1]; no irradiation, 0.1 μM, 24 hours): No measurable effect | dead irradiated cells ([2]; 10 min incubation, panitumumab probe about 0.1 μM, EGF probe 0.5 μM, 24 hours post irradiation): 62% | necrotic cells after irradiation ([2]; irradiation 24 J/cm^2 (figure legend)): 62% | effect on cells (morphology) ([3]; irradiated 10 minutes): severely affected by the irradiating energy and were dying | Cells/mL [3, 8]: 2.8 × 10^5 Cells/mL and 4.2 × 10^5 Cells/mL and 2.3 × 10^5 Cells/mL | VB-48 % necrotic [3, 8]: 67% and 87% | % Healthy [4, 9]: 15.0% | % Necrotic [4, 9]: 70% | Cells/mL [4, 9]: 1.2 × 10^5 Cells/mL | Est % Viability [4, 9]: 30-40% | Low % Vitality [4, 9]: 15% | cytotoxicity by microscopy ([4]; irradiated, up to 3 hours post-irradiation): most effective

C[Si](C)(CCC[N+](CCCS(=O)(=O)O)(CCCS(=O)(=O)O)CCCS(=O)(=O)O)O[Si-2]123(O[Si](C)(C)CCC[N+](CCCS(=O)(=O)O)(CCCS(=O)(=O)O)CCCS(=O)(=O)O)n4c5c6ccccc6c4N=C4c6cccc(OCCCOC(=O)NCCCCCC(=O)NCCCC[C@@H]7NC(=O)[C@@H](Cc8ccccc8)NC(=O)[C@H](CC(=O)O)NC(=O)CNC(=O)[C@H](CCCNC(=N)N)NC7=O)c6C(=[N+]41)N=c1c4ccccc4c(n12)=NC1=[N+]3C(=N5)c2ccccc21 [RGD-700DX]
Caspase 3 % late apoptotic + dead cells [5]: 57% | cell morphology ([6]; 32 J/cm^2, 20 h post irradiation): appeared rounded and smaller | Cell # ([6]; 32 J/cm^2, probe about 5 hours, 20 hours post irradiation, 700DX-RGD and 700DX-EGF 500 nM): 0.6E6 | % Healthy [4, 9]: 91.6% | % Necrotic [4, 9]: 7% | Cells/mL [4, 9]: 6.6 × 10^5 Cells/mL | Low % Vitality [4, 9]: 2% | % Healthy [4, 10]: 90.8% | % Necrotic [4, 10]: 5% | Cells/mL [4, 10]: 5.8 × 10^5 Cells/mL | Low % Vitality [4, 10]: 4% | JC-1 % shift [7]: 44%

Reference: patent US10588972B2, “Phthalocyanine probes and uses thereof” (LI-COR, INC., priority 2014, dated 2020)
